Laboratory results taken from ChEMBL document CHEMBL1201862, “PubChem BioAssay data set” (2004).
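Where inhibition never reached the appropriate level, the endpoint shown equals the highest concentration tested. Otherwise, values were interpolated linearly from a five-concentration, 48-hour dose response in 96-well plates. GI50: concentration for 50% inhibition of growth.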 Calls of active or inactive are those of the source. Rule as the data show it: active = GI50 up to about 1.1 µM and inactive = higher.

Columns and labels:
Assay in all cases: NCI-60 cell line screen, 48 h
[1] = tested on: A549
[2] = tested on: CCRF-CEM
[3] = tested on: COLO 205
[4] = tested on: EKVX
[5] = tested on: HCC 2998
[6] = tested on: IGROV-1
[7] = tested on: MDA-MB-435
[8] = tested on: NCI-H23
[9] = tested on: NCI/ADR-RES
[10] = tested on: OVCAR-5
[11] = tested on: OVCAR-8
[12] = tested on: RPMI-8226
[13] = tested on: SF-295
[14] = tested on: SK-MEL-28
[15] = tested on: SK-MEL-5
[16] = tested on: SK-OV-3
[17] = tested on: SNB-75
[18] = tested on: SW-620
[19] = tested on: TK-10
[20] = tested on: DMS-114

Row | Compound | GI50 [1] | GI50 [2] | GI50 [3] | GI50 [4] | GI50 [5] | GI50 [6] | GI50 [7] | GI50 [8] | GI50 [9] | GI50 [10] | GI50 [11] | GI50 [12] | GI50 [13] | GI50 [14] | GI50 [15] | GI50 [16] | GI50 [17] | GI50 [18] | GI50 [19] | GI50 [20]
1 | CCOC(=O)c1csc(NC(=O)CN2CCN(C)CC2)n1 | > 100 µM (inactive) | > 100 µM (inactive) | > 100 µM (inactive) | > 100 µM (inactive) | > 100 µM (inactive) | > 100 µM (inactive) | > 100 µM (inactive) | > 100 µM (inactive) | > 100 µM (inactive) | > 100 µM (inactive) | > 100 µM (inactive) | > 100 µM (inactive) | > 100 µM (inactive) | > 100 µM (inactive) | > 100 µM (inactive) | > 100 µM (inactive) | > 100 µM (inactive) | > 100 µM (inactive) | > 100 µM (inactive) | 
2 | CCOc1ccc(/N=N/c2ccc3oc(=O)c(/C(C)=N\NC(=O)CC(=O)Nc4ccc(Cl)cc4)cc3c2)cc1 | 20.7 µM (inactive) | 0.337 µM (active) | 30.5 µM (inactive) | 8.36 µM (inactive) | 16.3 µM (inactive) | 22 µM (inactive) |  | 18.7 µM (inactive) |  | 99.5 µM (inactive) | 16.1 µM (inactive) | 16.2 µM (inactive) | 16.5 µM (inactive) | 36.1 µM (inactive) | 14.3 µM (inactive) | 19.9 µM (inactive) |  | 17.8 µM (inactive) | 12.9 µM (inactive) | 15.9 µM (inactive)
3 | O=P(NCCCO)(OCc1ccccc1)N(CCCl)CCCl (centres undefined) | > 100 µM (inactive) | > 100 µM (inactive) | > 100 µM (inactive) |  | > 100 µM (inactive) | > 74.5 µM (inactive) |  | > 100 µM (inactive) | > 100 µM (inactive) | > 100 µM (inactive) | > 100 µM (inactive) |  | > 100 µM (inactive) | > 100 µM (inactive) | > 100 µM (inactive) | > 100 µM (inactive) | > 100 µM (inactive) | > 100 µM (inactive) |  | 
4 | CCOC(=O)C(NC(=O)CC)(Nc1ccccc1F)C(F)(F)F (centres undefined) | > 100 µM (inactive) |  | > 100 µM (inactive) | > 100 µM (inactive) | > 100 µM (inactive) | > 100 µM (inactive) | > 100 µM (inactive) | > 100 µM (inactive) | 99.3 µM (inactive) | 58.1 µM (inactive) | > 100 µM (inactive) | > 100 µM (inactive) | > 100 µM (inactive) | > 100 µM (inactive) | 68.2 µM (inactive) | > 100 µM (inactive) | > 100 µM (inactive) | > 100 µM (inactive) | > 100 µM (inactive) | 
5 | O=C1N(Cc2ccccc2)C2CSCC2N1Cc1ccccc1 (centres undefined) | 40 µM (inactive) | 51.2 µM (inactive) | 16.8 µM (inactive) | 21.1 µM (inactive) | 26.5 µM (inactive) | 24.8 µM (inactive) | 20.2 µM (inactive) | 27.8 µM (inactive) | 24.5 µM (inactive) | 15.9 µM (inactive) | 33.3 µM (inactive) | 23.5 µM (inactive) | 37.3 µM (inactive) | 37.7 µM (inactive) | 15.4 µM (inactive) | 27.4 µM (inactive) | 41.9 µM (inactive) | 36.2 µM (inactive) | 29.6 µM (inactive) | 
6 | CC(C)OP(=O)(OC(C)C)c1c(N)n[nH]c1Nc1ccccc1 | > 100 µM (inactive) | > 100 µM (inactive) | > 100 µM (inactive) | > 100 µM (inactive) | > 100 µM (inactive) | > 100 µM (inactive) | > 100 µM (inactive) | > 100 µM (inactive) | > 100 µM (inactive) | > 100 µM (inactive) | > 100 µM (inactive) | > 100 µM (inactive) | > 100 µM (inactive) | > 100 µM (inactive) | > 100 µM (inactive) | > 100 µM (inactive) | > 100 µM (inactive) | > 100 µM (inactive) | > 100 µM (inactive) | 
7 | CN1CCC23c4ccccc4NC1C21CCN(C)C3Nc2ccccc21 | > 375 µM (inactive) | 137 µM (inactive) | > 338 µM (inactive) | > 294 µM (inactive) | > 375 µM (inactive) | > 375 µM (inactive) |  | > 375 µM (inactive) | > 375 µM (inactive) | > 375 µM (inactive) | 59.4 µM (inactive) | 157 µM (inactive) | > 375 µM (inactive) | > 375 µM (inactive) | > 174 µM (inactive) | > 375 µM (inactive) | > 303 µM (inactive) | > 375 µM (inactive) |  | > 375 µM (inactive)
8 | N=C(N)SCc1cccc([N+](=O)[O-])c1 | 39.7 µM (inactive) | 27.7 µM (inactive) | 21.5 µM (inactive) | 42.3 µM (inactive) | 34.1 µM (inactive) | 57.7 µM (inactive) |  | 30.5 µM (inactive) | 21.2 µM (inactive) | 48.2 µM (inactive) | 26.2 µM (inactive) | 22.8 µM (inactive) | 38.9 µM (inactive) | 31.8 µM (inactive) | 32 µM (inactive) | > 57.1 µM (inactive) | 30.3 µM (inactive) | 36.6 µM (inactive) |  | 23.6 µM (inactive)
9 | CC(=O)Oc1cc2c(cc1OC(C)=O)OCC(c1ccc(C)cc1)C2 (centres undefined) | 16 µM (inactive) | 4.07 µM (inactive) | 20.5 µM (inactive) | 23.4 µM (inactive) | 12.6 µM (inactive) | 20.3 µM (inactive) |  | 15.9 µM (inactive) | 25.5 µM (inactive) | 33.5 µM (inactive) | 26.8 µM (inactive) | 11.6 µM (inactive) | 28.7 µM (inactive) | 20 µM (inactive) | 6.12 µM (inactive) | 53.7 µM (inactive) | 9.42 µM (inactive) | 19.5 µM (inactive) |  | 4.94 µM (inactive)
10 | COc1ccc(N2C(=O)C3c4[nH]c5ccccc5c4C4CCCCCCCCCC4C3C2=O)cc1 (centres undefined) | > 10 µM (inactive) | > 10 µM (inactive) | > 10 µM (inactive) | > 10 µM (inactive) | > 10 µM (inactive) | > 10 µM (inactive) | > 10 µM (inactive) | > 10 µM (inactive) | > 10 µM (inactive) | > 10 µM (inactive) | > 10 µM (inactive) | > 10 µM (inactive) | > 10 µM (inactive) | > 10 µM (inactive) | > 10 µM (inactive) | > 10 µM (inactive) | > 10 µM (inactive) | > 10 µM (inactive) | > 10 µM (inactive) | 
11 | CNS(=O)(=O)c1ccc2c(c1)/C(=C1/Nc3ccccc3C1=O)C(=O)N2 | > 100 µM (inactive) | 30.8 µM (inactive) | > 100 µM (inactive) | > 100 µM (inactive) | > 100 µM (inactive) | 18.7 µM (inactive) | > 100 µM (inactive) | 9.4 µM (inactive) | 67.8 µM (inactive) | > 100 µM (inactive) |  | > 100 µM (inactive) | > 100 µM (inactive) | > 100 µM (inactive) | 5.2 µM (inactive) | 92.9 µM (inactive) | > 100 µM (inactive) | > 100 µM (inactive) | > 100 µM (inactive) | 
12 | c1cc2c3c(c1)c1cc4c(cc1c[n+]3CC2)OCO4 [ANHYDROLYCORINIUM CHLORIDE] | 1.15 µM (inactive) | 3.35 µM (inactive) | 2.74 µM (inactive) | 3.4 µM (inactive) | 2.75 µM (inactive) | 4.02 µM (inactive) |  | 3.59 µM (inactive) | > 225 µM (inactive) | 2.85 µM (inactive) | 1.33 µM (inactive) | 2.14 µM (inactive) | 0.802 µM (active) | 4.82 µM (inactive) | 3.79 µM (inactive) | 10.2 µM (inactive) | 2.44 µM (inactive) | 1.9 µM (inactive) |  | 2.45 µM (inactive)
13 | CCCCCCCCCCCCCCCCCCOCC(O)CO (centres undefined) [BATILOL] | 4.32 µM (inactive) | 10.7 µM (inactive) | > 25 µM (inactive) | > 14.1 µM (inactive) | 12.4 µM (inactive) | 13.6 µM (inactive) |  | > 25 µM (inactive) | > 25 µM (inactive) | > 25 µM (inactive) | > 25 µM (inactive) | 4.9 µM (inactive) | 18.6 µM (inactive) | > 25 µM (inactive) | 2.07 µM (inactive) | > 23.5 µM (inactive) | 9.48 µM (inactive) | > 17 µM (inactive) |  | 18 µM (inactive)
